Values after ≈ are worked out from the molar mass of the structure shown. Values joined by “and” are separate entries in the source; they are usually repeats but may differ in a detail not shown here. Identical values can stand only once.
Columns and labels:
[1] = tested on: RKO colorectal cell line; test: Western blot of nuclear and cytoplasmic fractions; assay type: cell-based; conditions: versus DMSO
Experimental: For Western blot analysis, A375 cells were seeded onto 10 cm dishes in Dulbecco's Modified Eagle's Medium plus 10% (v/v) FBS. Cells were allowed to adhere overnight prior to the addition of test compound or vehicle. For experiments with RKO cells, these cells were seeded in 6-well plates or 10 cm dishes with McCoy's 5A+10% (v/v) FBS. Cells were then treated at the desired concentration and duration. Cells were harvested by trypsinization, pelleted, and snap frozen. Lysates were prepared with RIPA buffer supplemented with protease and phosphatase inhibitor cocktails (Roche), clarified by centrifugation at 11,000 rpm for 10 minutes, and quantitated by bicinchoninic acid assay. Samples were resolved by SDS-PAGE, blotted onto polyvinylidene difluoride membranes, and probed using antibodies (i.e., pRB [Ser780], cat. no. 9307; CCND1, cat. no. ab6152; BCL-xL, cat. no. 2762; PARP, cat. no. 9542; DUSP6, cat. no. 3058S) directed to the indicated targets.
In resting cells, ERK1/2 localizes to the cytoplasm, and once stimulated pERK1/2 migrates to target organelles, particularly the nucleus where transcriptional targets are activated (Wainstein et al. 2016). In DMSO-treated control cells, pERK1/2 is evident in both nuclear and cytoplasmic fractions, which is likely reflective of MAPK pathway activity due to the presence of BRAF^V600E in this cell line.

[2] = target: CDK1/cyclinB (Homo sapiens, UniProt P06493); test: Kinase counter-screen, Ki; assay type: biochemical; conditions: apparent Ki
Source text: (§2) The ATP concentrations were approximately equal to the Km in all assays.

[3] = target: CDK6/cycinD3 (Homo sapiens, UniProt Q00534); test: Kinase counter-screen, Ki; assay type: biochemical; conditions: apparent Ki
Source text: as §2

[4] = target: JNK3 (Homo sapiens, UniProt P53779); test: Kinase counter-screen, Ki; assay type: biochemical
Source text: as §2

[5] = tested on: advanced solid tumors; test: Phase I study: antitumor response (RECIST v1.1, 18F-FDG-PET); assay type: in vivo, human
Experimental: For measurement of antitumor response, tumor measurements based on physical examination occurred at baseline and on the first day of each treatment cycle. CT and other assessments were made every 2 to 3 cycles. Findings were assessed in accordance with RECIST v1.1: CR was defined as disappearance of all target lesions; PR was defined as a ≥30% decrease in the sum of the longest diameters of target lesions, taking baseline measurements as reference; stable disease was defined as being of neither sufficient shrinkage to qualify for PR nor sufficient increase to qualify for progressive disease, taking as reference the baseline measurement.

[6] = tested on: patient-derived xenograft (AT052C); test: Patient-derived xenograft from vemurafenib-refractory BRAFV600E melanoma; assay type: in vivo, mice; conditions: 100 mg/kg BID, 28 days
Source text: Tumor fragments were harvested from host animals and implanted into immune-deficient mice.

[7] = tested on: upstaged A375 xenografts; test: Upstaged A375 xenograft model, BVD-523 in combination with dabrafenib; assay type: in vivo, mice; conditions: 100 mg/kg BID
Experimental: (§1) Combination dosing was stopped on Day 20 to monitor for tumor regrowth. Animals were monitored individually and euthanized when each tumor reached an endpoint volume of 2000 mm^3, or the final day (Day 45), whichever came first, and median time to endpoint (TTE) calculated. The combination was also evaluated in an upstaged A375 model where larger tumors in the range 228-1008 mm^3 were evaluated. Here, mice were randomized into 1 group (Group 1) of 14 and 4 groups (Groups 2-5) of 20. […] Tumors were measured twice weekly. Combination dosing was stopped on Day 42 to monitor for tumor regrowth through study end (Day 60). Treatment outcome was determined from % TGD, defined as the percent increase in median TTE for treated versus control mice, with differences between groups analyzed via log rank survival analysis. […] Mice were also monitored for CR and PR responses. Animals with a CR at the end of the study were additionally classified as TFS.

[8] = tested on: PMA-stimulated RSK1 phosphorylation; test: Ex vivo inhibition of PMA-stimulated RSK1 phosphorylation in human whole blood; assay type: cell-based
[9] = target: CDK2/cyclinA (Homo sapiens, UniProt P24941); test: Kinase counter-screen, Ki; assay type: biochemical
Source text: as §2

[10] = target: ERK1 (Homo sapiens, UniProt P27361); test: biochemical
Experimental: The reaction was initiated by the addition of 65 μM of ATP. Decreased absorbance rate (340 nm) was monitored and the IC50 was determined as a function of inhibitor concentration.

[11] = target: ROCKII (Homo sapiens, UniProt O75116); test: Kinase counter-screen, Ki; assay type: biochemical; conditions: apparent Ki
Source text: as §2

[12] = tested on: Colo205 xenografts; test: BVD-523 activity in Colo205 xenografts
[13] = target: JNK2α (Homo sapiens, UniProt P45984); test: Kinase counter-screen, Ki; assay type: biochemical; conditions: apparent Ki
Source text: as §2

[14] = target: P38δ (Homo sapiens, UniProt O15264); test: Kinase counter-screen, Ki; assay type: biochemical; conditions: apparent Ki
Source text: as §2

[15] = target: RSK3 (Homo sapiens, UniProt Q15349); test: Kinase counter-screen, Ki; assay type: biochemical
Source text: as §2

[16] = tested on: A375 xenografts; test: A375 xenografts, BVD-523 in combination with dabrafenib; assay type: in vivo, mice; conditions: 100 mg/kg BID
Source text: For measurement of antitumor activity in A375 xenografts, xenografts were initiated with A375 cells maintained by serial subcutaneous transplantation in female athymic nude mice. Each test mouse received an A375 tumor fragment (1 mm^3) implanted subcutaneously in the right flank. Once tumors reached target size (80-120 mm^3), animals were randomized into treatment and control groups, and drug treatment was initiated.
as §1

Sequence of ERK1 (P27361 whole entry): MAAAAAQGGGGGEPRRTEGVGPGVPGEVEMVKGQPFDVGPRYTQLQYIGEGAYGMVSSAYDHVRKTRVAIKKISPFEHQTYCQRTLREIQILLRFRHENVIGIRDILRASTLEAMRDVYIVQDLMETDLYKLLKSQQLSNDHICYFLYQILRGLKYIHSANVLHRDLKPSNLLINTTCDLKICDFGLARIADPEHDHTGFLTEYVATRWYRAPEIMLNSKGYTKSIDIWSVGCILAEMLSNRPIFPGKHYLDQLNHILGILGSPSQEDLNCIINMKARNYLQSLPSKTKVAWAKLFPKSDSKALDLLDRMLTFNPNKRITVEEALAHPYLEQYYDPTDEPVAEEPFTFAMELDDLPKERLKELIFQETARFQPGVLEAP
Sequence of ROCKII (O75116 whole entry, species assumed): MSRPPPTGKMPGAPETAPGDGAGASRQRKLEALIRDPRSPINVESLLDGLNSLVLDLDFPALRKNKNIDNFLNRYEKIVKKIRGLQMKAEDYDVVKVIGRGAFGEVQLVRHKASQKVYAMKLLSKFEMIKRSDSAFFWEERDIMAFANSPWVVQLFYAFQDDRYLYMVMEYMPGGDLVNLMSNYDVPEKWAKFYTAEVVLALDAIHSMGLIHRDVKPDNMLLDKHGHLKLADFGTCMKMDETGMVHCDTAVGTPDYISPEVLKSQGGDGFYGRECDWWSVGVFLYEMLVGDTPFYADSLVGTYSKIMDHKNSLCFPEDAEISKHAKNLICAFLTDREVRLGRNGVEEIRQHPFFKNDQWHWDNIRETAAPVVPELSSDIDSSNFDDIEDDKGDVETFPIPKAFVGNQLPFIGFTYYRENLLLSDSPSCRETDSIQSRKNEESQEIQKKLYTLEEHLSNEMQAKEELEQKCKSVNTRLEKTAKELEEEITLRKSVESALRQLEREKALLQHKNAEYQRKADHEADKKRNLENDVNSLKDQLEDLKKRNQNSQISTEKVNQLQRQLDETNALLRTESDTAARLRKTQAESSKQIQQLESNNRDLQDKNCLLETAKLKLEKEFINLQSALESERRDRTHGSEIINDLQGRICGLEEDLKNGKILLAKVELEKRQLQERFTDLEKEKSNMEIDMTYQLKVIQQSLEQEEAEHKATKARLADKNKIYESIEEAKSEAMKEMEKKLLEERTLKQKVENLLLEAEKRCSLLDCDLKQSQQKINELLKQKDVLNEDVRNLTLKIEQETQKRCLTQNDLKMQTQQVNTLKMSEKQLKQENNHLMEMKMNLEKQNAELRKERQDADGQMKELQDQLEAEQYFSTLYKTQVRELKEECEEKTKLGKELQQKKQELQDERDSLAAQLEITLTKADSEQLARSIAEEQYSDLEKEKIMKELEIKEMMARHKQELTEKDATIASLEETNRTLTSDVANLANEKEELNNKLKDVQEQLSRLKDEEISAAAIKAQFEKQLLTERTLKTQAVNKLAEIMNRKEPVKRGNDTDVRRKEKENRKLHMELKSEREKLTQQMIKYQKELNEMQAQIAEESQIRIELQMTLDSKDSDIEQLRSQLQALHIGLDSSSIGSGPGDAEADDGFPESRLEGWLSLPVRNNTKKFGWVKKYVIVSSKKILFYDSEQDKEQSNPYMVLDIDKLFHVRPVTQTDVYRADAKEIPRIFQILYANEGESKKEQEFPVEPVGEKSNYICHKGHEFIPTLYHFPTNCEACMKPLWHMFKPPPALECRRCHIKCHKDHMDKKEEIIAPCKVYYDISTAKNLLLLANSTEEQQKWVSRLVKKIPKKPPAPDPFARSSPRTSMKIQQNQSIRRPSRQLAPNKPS
Sequence of RSK3 (Q15349 whole entry, species assumed): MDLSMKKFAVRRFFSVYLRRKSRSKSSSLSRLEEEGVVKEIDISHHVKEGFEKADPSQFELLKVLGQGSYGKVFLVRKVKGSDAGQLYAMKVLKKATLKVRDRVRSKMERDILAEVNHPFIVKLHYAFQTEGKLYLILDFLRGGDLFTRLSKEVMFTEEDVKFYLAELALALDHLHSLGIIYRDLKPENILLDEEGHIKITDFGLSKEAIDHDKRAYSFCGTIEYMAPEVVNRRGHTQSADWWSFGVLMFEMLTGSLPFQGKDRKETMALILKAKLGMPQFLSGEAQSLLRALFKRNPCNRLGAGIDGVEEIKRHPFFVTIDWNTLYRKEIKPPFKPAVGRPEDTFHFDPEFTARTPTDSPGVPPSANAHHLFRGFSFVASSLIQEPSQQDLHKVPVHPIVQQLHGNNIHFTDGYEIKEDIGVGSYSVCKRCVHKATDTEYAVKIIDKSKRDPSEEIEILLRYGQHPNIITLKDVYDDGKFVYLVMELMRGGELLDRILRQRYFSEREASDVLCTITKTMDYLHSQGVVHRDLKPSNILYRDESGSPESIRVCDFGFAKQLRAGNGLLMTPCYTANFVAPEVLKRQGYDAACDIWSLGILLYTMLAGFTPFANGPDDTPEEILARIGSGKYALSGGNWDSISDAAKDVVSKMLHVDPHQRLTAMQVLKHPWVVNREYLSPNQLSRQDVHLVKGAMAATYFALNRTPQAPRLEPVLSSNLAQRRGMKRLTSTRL
Sequence of CDK6/cycinD3 (Q00534 whole entry, species assumed): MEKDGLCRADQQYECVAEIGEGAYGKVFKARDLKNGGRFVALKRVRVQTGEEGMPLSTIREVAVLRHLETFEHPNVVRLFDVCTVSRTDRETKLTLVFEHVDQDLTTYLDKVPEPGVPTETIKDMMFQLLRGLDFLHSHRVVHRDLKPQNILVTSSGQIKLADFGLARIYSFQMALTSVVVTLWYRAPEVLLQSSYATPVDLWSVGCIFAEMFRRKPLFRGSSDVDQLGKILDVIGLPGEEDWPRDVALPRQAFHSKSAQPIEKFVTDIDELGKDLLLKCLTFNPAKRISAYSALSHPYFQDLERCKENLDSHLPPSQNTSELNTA
Sequence of CDK6/cycinD3 (P30281 whole entry partner, species assumed): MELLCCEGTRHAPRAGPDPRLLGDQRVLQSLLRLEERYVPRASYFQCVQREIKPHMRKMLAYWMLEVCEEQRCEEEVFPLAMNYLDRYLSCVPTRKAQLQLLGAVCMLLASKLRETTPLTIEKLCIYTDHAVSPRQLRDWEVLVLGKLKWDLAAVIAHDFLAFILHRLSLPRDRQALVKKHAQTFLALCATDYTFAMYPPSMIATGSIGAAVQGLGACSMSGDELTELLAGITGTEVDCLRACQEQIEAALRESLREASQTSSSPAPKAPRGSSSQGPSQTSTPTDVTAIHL
Sequence of P38δ (O15264 whole entry): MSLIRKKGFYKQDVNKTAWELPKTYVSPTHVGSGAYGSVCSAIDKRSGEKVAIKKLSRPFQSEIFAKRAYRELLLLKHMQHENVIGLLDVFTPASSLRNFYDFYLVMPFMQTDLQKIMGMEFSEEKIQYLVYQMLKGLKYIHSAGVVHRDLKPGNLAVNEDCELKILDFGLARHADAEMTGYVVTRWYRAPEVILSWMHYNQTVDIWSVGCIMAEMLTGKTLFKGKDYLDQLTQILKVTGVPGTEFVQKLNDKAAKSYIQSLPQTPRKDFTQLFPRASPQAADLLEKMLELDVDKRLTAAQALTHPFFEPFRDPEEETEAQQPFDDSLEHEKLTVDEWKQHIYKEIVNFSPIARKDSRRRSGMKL
Sequence of JNK2α (P45984 whole entry): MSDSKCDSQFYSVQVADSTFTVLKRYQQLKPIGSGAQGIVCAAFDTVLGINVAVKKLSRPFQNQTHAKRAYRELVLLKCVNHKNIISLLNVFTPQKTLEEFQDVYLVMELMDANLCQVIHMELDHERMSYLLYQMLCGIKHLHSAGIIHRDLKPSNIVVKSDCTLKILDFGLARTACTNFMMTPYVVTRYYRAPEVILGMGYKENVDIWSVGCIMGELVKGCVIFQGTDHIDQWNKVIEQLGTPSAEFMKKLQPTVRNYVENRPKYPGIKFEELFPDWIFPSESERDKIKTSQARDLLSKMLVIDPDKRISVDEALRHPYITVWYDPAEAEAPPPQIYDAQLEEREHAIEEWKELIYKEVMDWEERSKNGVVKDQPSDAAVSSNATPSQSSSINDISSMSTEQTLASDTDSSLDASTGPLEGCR
Sequence of CDK1/cyclinB (P06493 whole entry, species assumed): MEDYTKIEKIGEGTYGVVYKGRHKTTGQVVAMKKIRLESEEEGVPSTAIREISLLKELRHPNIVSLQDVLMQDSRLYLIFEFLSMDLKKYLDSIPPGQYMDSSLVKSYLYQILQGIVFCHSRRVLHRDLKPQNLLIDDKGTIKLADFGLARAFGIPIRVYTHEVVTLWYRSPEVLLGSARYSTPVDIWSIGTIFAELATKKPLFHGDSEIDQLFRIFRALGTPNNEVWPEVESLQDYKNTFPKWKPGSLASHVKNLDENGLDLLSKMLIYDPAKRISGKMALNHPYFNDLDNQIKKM
Sequence of CDK1/cyclinB (P14635 whole entry partner, species assumed): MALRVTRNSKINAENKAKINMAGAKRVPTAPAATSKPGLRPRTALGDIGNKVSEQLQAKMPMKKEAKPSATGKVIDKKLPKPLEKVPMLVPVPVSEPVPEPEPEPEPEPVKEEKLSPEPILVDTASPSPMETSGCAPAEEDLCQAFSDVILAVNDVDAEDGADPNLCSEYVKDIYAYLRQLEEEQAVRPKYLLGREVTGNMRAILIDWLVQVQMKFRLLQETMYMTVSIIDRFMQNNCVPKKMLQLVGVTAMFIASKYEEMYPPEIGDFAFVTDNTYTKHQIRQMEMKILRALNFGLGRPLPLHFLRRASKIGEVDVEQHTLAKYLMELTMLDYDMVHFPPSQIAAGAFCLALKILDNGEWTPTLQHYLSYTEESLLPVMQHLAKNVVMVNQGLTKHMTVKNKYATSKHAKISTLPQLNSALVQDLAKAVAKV

## O=C(Nc1ccc2[nH]nc(-c3ccncc3)c2c1)[C@@H]1CCN(CC(=O)N2CCN(c3ccc(-c4ncccn4)cc3)CC2)C1 [SCH772984]
[1]
  pERK1/2 in nuclear and cytoplasmic fractions: inhibited phosphorylation of ERK1/2 and RSK

## CC(C)Nc1cc(-c2c[nH]c(C(=O)N[C@H](CO)c3cccc(Cl)c3)c2)c(Cl)cn1 [BVD-523]
[2]
  Ki: 70 nM
[3]
  Ki: 90 nM
[4]
  Ki: 1300 nM
[5]; 600 mg BID, progressed on prior vemurafenib and dabrafenib/trametinib
  durable partial response, duration of dosing: > 300 days
[5]; 25 evaluable patients, all melanoma with BRAF^V600 mutations
  partial response: 3 patients
[5]; in vivo
  progressive disease at first evaluation: 4 patients
  stable disease: 18 patients
  stable disease for more than 3 months (additional patients): 6 patients
  stable disease for more than 6 months: 6 patients
[5]; other partial responders
  reduction in the sum of target lesions from baseline: 47.0% and 33.6%
[5]; partial responder at 450 mg BID
  reduction in the sum of target lesions from baseline: ~70%
[5]; patient intolerant to other BRAF/MEK inhibitors, ongoing by data cutoff
  duration of partial response: ≥ 313 days
[5]; patient refractory to prior BRAF/MEK inhibitors, ongoing
  duration of partial response: ≥ 294 days
[6]
  TGI: 78%
[7]
  PRs: 2
[8]; Homo sapiens, human whole blood (HWB), read-out: EC50 based on the ex vivo whole blood assay
  EC50: ~0.2 µg/mL (≈ 0.462 µM)
[8]; Homo sapiens, read-out: maximum inhibition of RSK phosphorylation
  inhibition at 10 µM: 75.8 ± 2.7%
[8]; Homo sapiens, whole blood from healthy volunteers, read-out: mean IC50, PMA-stimulated RSK phosphorylation
  IC50: 461 ± 20 nM
[8]; human whole blood (HWB)
  EC50 based on the ex vivo whole blood assay: 200 ng/mL (≈ 0.462 µM)
[9]
  Ki: 360 nM
[10]; Ki against recombinant ERK1, tight-binding
  Ki: < 0.3 nM
[10]; Ki, ERK1
  Ki: ≤ 0.3 nM
[11]
  Ki: 270 nM
[12]; 25 mg/kg BID
  T/C: 25.2%
[12]; 50 mg/kg BID
  mean tumor regression T/Ti: −48.2%
[12]; 75 mg/kg BID
  mean tumor regression T/Ti: −77.2%
[12]; 100 mg/kg BID
  mean tumor regression T/Ti: −92.3%
[13]
  Ki: 650 nM
[14]
  Ki: 240 nM
[15]
  Ki: 450 nM
[16]
  durable complete responses: 2

Reference: patent publication US20210038587A1, “METHODS AND COMPOSITIONS FOR TREATING NON-ERK MAPK PATHWAY INHIBITOR-RESISTANT CANCERS” (BIOMED VALLEY DISCOVERIES, INC., priority 2013, published 2021)
